Data on one compound can be found in patent US20230137849A1, “USE OF A COMPOUND OF THE DIURETICS CLASS FOR TREATING CANCER” (AZELEAD, priority 2017, published 2023).

Data set [1] in a line: Solubilization of althiazide and enantiomers without DMSO. The data set is classed as physicochemical. Conditions: no DMSO. The method, then:
Solubilization of althiazide and enantiomers was achieved by solubilization in a solvent of 95% 1M Tris pH 10.8 and supplemented with 5% pure ethanol.
Althiazide and enantiomers are resuspended at a concentration of 2 mg/ml. Each of the solutions is vortexed for 30 seconds and then placed in an ultrasound bath for a sonication of 5min; this operation is repeated once. The dissolution is complete despite the absence of DMSO.
The solubilization of althiazide and enantiomers was also obtained by solubilization in a solution consisting of a mixture of 3.7% of NaHCO3, 0.2M and 21% of Na2CO3 0.2M at pH 10.6 and supplemented with pure water. Althiazide and enantiomers are resuspended at a concentration of 2.5 mg/ml. Each of the solutions is vortexed for 30 seconds and then placed in an ultrasound bath for a sonication of 1 min. The dissolution is complete despite the absence of DMSO.

For the next data set, the system named is zebrafish embryo. Conditions: in vivo, 24 h, 1 mM. The procedure:
The toxicity study is carried out over 72 hours. The embryos are treated at 25 hpf with the doses used for the test of chemical compounds of each of the compounds, in a 96-well plate, in a final volume of 100 μl of the embryonic growth medium. The embryos are incubated 72 h at 28° C. The medium is changed every 24 hours. The survival rate of embryos and the appearance of developmental defects are analyzed daily.
At the same time, we analyzed the toxicity of althiazide after balancing with a solution containing althiazide at concentrations of 1 μM, 10 μM, 100 μM, 1000 μM for 24, 48 and 72 hours. The toxicity study was based on analysis of the percentage viability of the embryos after treatment. At concentrations of 1 μM, 10 μM and 100 μM, althiazide causes no toxicity even after 72 hours of treatment. A 50% toxicity is observed after treatment for 24 hours, the althiazide at the concentration of 1 mM.

Another data set relates to E-CADHERIN
In words: q-RT-PCR expression of EMT markers in MDA-MB-231 cells under hypoxia: E-CADHERIN
Conditions: althiazide 100 μM, hypoxic conditions (1% O2), vs control, FIG. 11. The data set is classed as cell-based, human. The method, then: (§1) The cell cultures are carried out on human breast cancer epithelial cell lines MDA-MB-231 (HTB-26™), resulting from metastases present in a pleural effusion of a patient with a mammary adenocarcinoma. This line is used as a triple negative cancer cell model (no expression of ER-type nuclear estrogen receptors, nuclear progesterone receptors or overexpression of the oncogene encoding HER2 protein (Human Epidermal Growth factor Receptor-2).
(§2) The cells were cultured in DMEM medium (Eurobio, Fance) supplemented with 10% fetal calf serum (FCS) (Eurobio, Fance) at 37° C., 5% CO2. The medium was changed every 3 days.
(§3) The cells were placed in a controlled atmosphere at 1% oxygen 24 hours before the application of the different treatments.
(§4) The expression of the mRNAs is measured by the q-RT-PCR method. The cells were seeded at the density of 500,000 cells/well in 6-well plates. After 24 hours at 37° C., 5% CO2 and 1% O2, the medium was renewed and added the various treatments. RNA was isolated using TRI Reagent® (sigma), assayed and retro-transcribed into complementary DNA using the PrimeScript RT Reagent Kit (Takara). The expression levels of the mRNA of the genes of interest were determined by quantitative PCR (LightCycler® 480 Instrument II) with the primers listed in Table 2: […]
(§5) The results are calculated using the Delta Delta Ct (Δ ΔCt) method.

Another data set deals with 4T1 cells. Put plainly: 4T1 cell migration test (scratch test). The data set is classed as cell-based, mouse. Conditions: lowest concentration 10 nM, t=24 h, FIG. 8. The procedure:
The cell migration assays on the 4T1 cell line are carried out in vitro in 12-well plates on the 4T1 cell line. The cells are maintained in DMEM culture medium supplemented with 10% calf serum (FCS) and incubated at 37° C. and 5% CO2. The cell monolayer is injured with a 10 μ pipette tip. The medium is aspirated and replaced by a medium containing the compounds to be tested at the concentrations described. The wells are imaged using a microscope and the injured surface is repaired at the indicated times to highlight the cell anti-migratory power of the tested chemical compounds. The average of the measurements obtained is compared with the control wells: (average value of the compounds treated/average value of the controls)*100=% of the average value.
In order to validate the anti-migratory potential of althiazide, we carry out a “scratch test” on 4T1 cells in culture according to the cell migration test protocol on the 4T1 cell line described in the Materials and Methods section. This test is used to evaluate the migratory power of a chemical compound on cells in culture. […]
The area of the injured area is measured for each well and the percentage of migration is calculated under each condition.

For another data set, the system named is SNAIL. In words: q-RT-PCR expression of EMT markers in MDA-MB-231 cells under hypoxia: SNAIL. The data set is classed as cell-based, human. Conditions: althiazide 100 μM, hypoxic conditions (1% O2), vs control, FIG. 11. The procedure:
as §1, §2, §3, §4, §5

Take `C=CCSCC1Nc2cc(Cl)c(S(N)(=O)=O)cc2S(=O)(=O)N1` (racemic) [althiazide]: the dissolution result in data set [1] (2 mg/ml in 95% 1M Tris pH 10.8 + 5% pure ethanol, vortex and sonication) is given as “complete”; in data set [1] (2.5 mg/ml in 3.7% NaHCO3 0.2M + 21% Na2CO3 0.2M at pH 10.6 and pure water) it was “complete”. Besides, the “toxicity (percentage viability of the embryos)” value in the data set with zebrafish embryo is listed as 50%. Moreover, in the data set on E-CADHERIN, the “increase in E-CADHERIN expression” value is given as 73%. Further, the “decrease in cell migration” value with 4T1 cells is 40%. Moreover, the “change in expression of SNAIL” value with SNAIL was −19%.
